Results taken from US20230345990A1, “PROCESS FOR PRODUCTION OF CONCENTRATES OF CHELATED MINERALS WITH SOYBEAN AMINO ACIDS AND/OR SOYBEAM PROTEIN, AND RELATED PRODUCT” (Yessinergy Holding S.A., priority 2021, published 2023).

What was measured:
Type in all cases: in vivo, broilers (Cobb 500 male chicks)
[1] = Foot Pad Lesions (FPL) score in broilers at 42 days
Description: (§1) An experiment was developed with the purpose of investigating the effect of providing six different sources of Zn, at two levels of supplementation, in diets based on corn, soybean bran and phytase, with respect to performance and balance of Zn in broilers.
(§2) Feed and water were freely provided throughout an experimental period from 1 to 42 days. The shed room temperature was maintained using 250 Watt infrared lamps and curtains on the sides of the shed. Light was provided for 22 hours/day in a scheme of 12 hours of natural light and 10 hours of artificial light. 2,400 lineage Cobb 500 male chicks were used, distributed in a randomized block design housed on the floor in a shed divided into 120 boxes of 1.0×2.0 meters (3,3×6.6 ft), with reused wood shavings bed, for the purpose of increasing the health challenge of birds.
(§3) The birds were randomly distributed in a 6×2 factorial arrangement with six different sources of Zn and two levels of Zn (40 and 80 mg/kg), totaling 12 treatments with 10 repetitions and 20 animals per box (this being considered one experimental unit).
At 42 days of age, during individual weighing of the birds, the quality of the foot pad was determined, using the Foot Pad Lesions (FPL) score according to Berg (1998) and Van Ham et al. (2019), wherein both foot pads of all animals in the experiment were evaluated. Score 0 was given for cushions without any injuries, 1 for discolored cushions but without deep injuries, and score 2 for cushions with deep injuries (ulcers, blisters, etc.). As this is a subjective fact, only one person was responsible for the assessment of the foot pad score. The Injury Score for each experimental unit was calculated according to the following equation, with FPL index varying from 0 to 200 (all birds having score 2).

[2] = Broiler performance (feed intake, weight gain, feed conversion) with different Zn sources
Text: as §1
The experimental feeds used for the initial phase (1 to 21 days) and for growth (21 to 42 days) were formulated based on corn, soybean bran and phytase, following the recommendations proposed by Rostagno et al. (2017) for each phase.
as §2, with “birds. […]” for “birds.”
The parameters of performance evaluated were feed intake (FI, kg/bird), weight gain (WG, kg/bird), feed conversion (FC, kg/kg).

[3] = Zn balance in broilers (Zn in excreta, retained Zn)
Description: as §1, §2, §3
At 33 days of age, excreta were collected for 24 hours by placing a plastic canvas on the floor of each box to determine Zn content (mg/kg of dry matter in excreta), retained Zn (consumed mg minus excreted mg), and Zn balance (retained Zn/consumed Zn x 100).

[4] = level of zinc 40 mg/kg, 1 to 42 days
[5] = level of zinc 80 mg/kg, 1 to 42 days

## O=S(=O)([O-])[O-].[Zn+2] [SF, ZnSO4]
[1]; level of zinc 40 mg/kg
  Foot pad lesions % (42 days): 18.98%
[1]; level of zinc 80 mg/kg
  Foot pad lesions % (42 days): 25.09%
[1]; mean of 40 and 80 mg/kg
  Foot pad lesions % (42 days): 22.0%
[2]; level of zinc 40 mg/kg
  Feed Conversion: 1.52 kg consumption/kg
[2]; [4]
  Feed Consumption: 4.81 kg/bird
  Weight Gain: 3.17 kg/bird
[2]; level of zinc 80 mg/kg
  Feed Conversion: 1.51 kg consumption/kg
[2]; [5]
  Feed Consumption: 4.73 kg/bird
  Weight Gain: 3.14 kg/bird
[2]; level of zinc 100 mg/kg, trend based on results from 40 to 80 ppm of Zn
  Feed Conversion: 1.52 kg consumption/kg
[2]; mean
  Feed Conversion: 1.51 ab kg consumption/kg
[2]; mean of 40 and 80 mg/kg
  Feed Consumption: 4.77 kg/bird
  Weight Gain: 3.16 kg/bird
[3]; level of zinc 40 mg/kg
  Percentage of Retained Zinc: 19.52%
[3]; level of zinc 40 mg/kg, excreta collected 24 h
  Zinc Excretion: 10.26 mg/bird
[3]; level of zinc 80 mg/kg
  Percentage of Retained Zinc: 47.23%
[3]; level of zinc 80 mg/kg, excreta collected 24 h
  Zinc Excretion: 9.17 mg/bird
[3]; mean of 40 and 80 mg/kg
  Percentage of Retained Zinc: 33.4%
  Zinc Excretion: 9.7 mg/bird
